Our source for the GI50 and TGI values is PubChem BioAssay (NCI).

Among the test systems are SF-268 CNS; SK-MEL-2 melanoma; MOLT-4 leukemia; UACC-62 melanoma; HCT-15 colon; TK-10 renal; KM12 colon; NCI-H23 lung; SK-MEL-28 melanoma; HCC-2998 colon.
Experiment in all cases: NCI anticancer screen, dose series, 48 h

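Compound exposure: 48 hours, 5 concentrations, 96-well plates. The concentration for 50% growth inhibition is given as GI50. TGI is the concentration that stops growth completely.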 Bounds are passed on as bounds.

Consider `NC(N)=N/N=C/c1c(-c2cccs2)nc2n1CCS2`, for which the GI50 is 25.5 µM in the assay on SF-268 CNS; 43.3 µM in the assay with SK-MEL-2 melanoma; 13.9 µM in the assay on MOLT-4 leukemia; 13.5 µM in the assay on UACC-62 melanoma; 20.6 µM in the assay with HCT-15 colon; 18.3 µM with TK-10 renal. Further, in the assay with KM12 colon, the GI50 was 14.2 µM. The TGI with SF-268 CNS was 53.3 µM; with SK-MEL-2 melanoma, > 100 µM; with MOLT-4 leukemia it was 28.5 µM; with UACC-62 melanoma, 26.4 µM; in the assay on HCT-15 colon, 60.1 µM; in the assay on TK-10 renal it was 46.5 µM. Further, the TGI in the assay with KM12 colon amounted to 29.2 µM.
With `OC1CCSc2ccccc21` (stereo not drawn), the TGI in the assay on NCI-H23 lung, with SK-MEL-28 melanoma, in the assay with SF-268 CNS, in the assay on SK-MEL-2 melanoma, in the assay with MOLT-4 leukemia and in the assay with HCC-2998 colon was > 100 µM each time. Further, the TGI in the assay on UACC-62 melanoma, in the assay with HCT-15 colon and in the assay on KM12 colon was > 100 µM in each case.
`CCOC(=O)c1cccc(N=Nc2ncc(/C=C/C(=O)OC)[nH]2)c1`: the TGI in the assay on NCI-H23 lung is > 100 µM; in the assay with SK-MEL-28 melanoma, > 100 µM; in the assay with SF-268 CNS, > 100 µM; with SK-MEL-2 melanoma, > 100 µM; with MOLT-4 leukemia, 28.9 µM; with HCC-2998 colon, 43.8 µM. The TGI in the assay with UACC-62 melanoma was 63.2 µM; with HCT-15 colon it was > 100 µM; in the assay with TK-10 renal, > 100 µM; in the assay on KM12 colon, 82.2 µM.
Take `C#C[C@]1(O)[C@@H](CO)O[C@@H](n2ccc(=O)[nH]c2=O)[C@@H]1O`: the TGI with NCI-H23 lung was 7.37 µM; with SK-MEL-28 melanoma, 31.3 µM; in the assay with SK-MEL-2 melanoma it was 3.32 µM; in the assay with UACC-62 melanoma, 3.56 µM; with TK-10 renal, > 100 µM; in the assay with KM12 colon it was > 100 µM.
`CN(CCN1C(=O)c2cccc3cccc(c23)C1=O)CCN1C(=O)c2cccc3cccc(c23)C1=O`: the TGI in the assay on NCI-H23 lung was 43.7 µM; in the assay on SK-MEL-28 melanoma, > 100 µM; in the assay with SF-268 CNS, > 100 µM; with SK-MEL-2 melanoma it was > 100 µM; with MOLT-4 leukemia, > 100 µM; with UACC-62 melanoma, > 100 µM. The figures for the TGI in the assay with HCT-15 colon, with TK-10 renal and in the assay with KM12 colon were > 100 µM, 27.7 µM and > 100 µM, respectively.
As for `c1ccc(C[N+]23C(CC[C@H]2c2ccccc2)CC[C@H]3c2ccccc2)cc1` (stereo partly drawn), the TGI in the assay with SK-MEL-28 melanoma is > 100 µM; with SF-268 CNS it was > 100 µM; with SK-MEL-2 melanoma it was > 100 µM; in the assay with MOLT-4 leukemia, > 100 µM; in the assay on TK-10 renal it was > 100 µM; with KM12 colon it was 78 µM.
In the case of `CC(CCCCNC(=O)OC(C)(C)C)NC(=O)NC(C)CCCCNC(=O)OC(C)(C)C` (stereo not drawn), the TGI in the assay on NCI-H23 lung, in the assay with SK-MEL-28 melanoma, in the assay with SF-268 CNS, with MOLT-4 leukemia, with UACC-62 melanoma and in the assay with HCT-15 colon was > 100 µM in each case. Moreover, the TGI in the assay with TK-10 renal and with KM12 colon was > 100 µM each time.
Consider `Fc1c(F)c(F)c(CSc2nc3ccccc3[nH]2)c(F)c1F`, for which the TGI in the assay on NCI-H23 lung, with SK-MEL-28 melanoma, in the assay with SF-268 CNS, with SK-MEL-2 melanoma, with MOLT-4 leukemia and in the assay with HCC-2998 colon was > 100 µM throughout. In addition, the TGI in the assay with UACC-62 melanoma, in the assay on HCT-15 colon, with TK-10 renal and in the assay with KM12 colon was > 100 µM each time.
As to `Oc1ccc(Cl)cc1C1=Nn2c(COc3ccc4c(c3)CCCC4)nnc2SC1`, the TGI turned out to be 26.9 µM with NCI-H23 lung; 14.4 µM in the assay on SK-MEL-28 melanoma; 35 µM with SF-268 CNS; 31.1 µM in the assay with SK-MEL-2 melanoma; 43.8 µM in the assay on MOLT-4 leukemia; 25.4 µM in the assay with UACC-62 melanoma. Also, the results for the TGI with HCT-15 colon, in the assay with TK-10 renal and with KM12 colon were 36.7 µM, 20.1 µM and 29.8 µM, respectively.
As for `COc1cc2cc[n+](C)c(Cc3ccc(Oc4cc(Cc5c6cc(OC)c(OC)cc6cc[n+]5C)ccc4OC)cc3)c2cc1OC`, the TGI in the assay on NCI-H23 lung, in the assay on SK-MEL-28 melanoma, in the assay with SF-268 CNS, in the assay on SK-MEL-2 melanoma, with MOLT-4 leukemia and in the assay with HCC-2998 colon was > 100 µM in each case. For the same molecule, the TGI with UACC-62 melanoma, with HCT-15 colon, in the assay with TK-10 renal and with KM12 colon was > 100 µM throughout.
Take `O=C(NN1CCCCC1)c1cc2cc(CCl)ccc2oc1=O`: the TGI in the assay with NCI-H23 lung was 32.5 µM; in the assay with SK-MEL-28 melanoma it was > 100 µM; with SF-268 CNS it was 32.9 µM; in the assay on SK-MEL-2 melanoma it was 28.9 µM; in the assay with MOLT-4 leukemia it was 65.5 µM; in the assay with HCC-2998 colon it was 27.1 µM. Moreover, the TGI is 85.8 µM in the assay with UACC-62 melanoma, 39.9 µM with HCT-15 colon, 35.5 µM with TK-10 renal and 49.4 µM in the assay with KM12 colon.
On to `CC(C)(C)COS(=O)OCC(C)(C)C`, for which the TGI in the assay with NCI-H23 lung, in the assay on SK-MEL-28 melanoma, in the assay with SF-268 CNS, with SK-MEL-2 melanoma, in the assay on MOLT-4 leukemia and with HCC-2998 colon was > 100 µM each time. The TGI in the assay with UACC-62 melanoma, in the assay with HCT-15 colon, in the assay on TK-10 renal and with KM12 colon was > 100 µM throughout.
In the case of `Cc1ccc(S(=O)(=O)Nc2cc(=O)[nH]c3c2CCC3)cc1`, the TGI in the assay with NCI-H23 lung, in the assay on SK-MEL-28 melanoma, in the assay on SF-268 CNS, with SK-MEL-2 melanoma, with MOLT-4 leukemia and in the assay with HCC-2998 colon was > 100 µM throughout. For the same molecule, the TGI in the assay on UACC-62 melanoma, in the assay on HCT-15 colon, in the assay with TK-10 renal and in the assay on KM12 colon was > 100 µM each time.
With `CC12OC(C(=O)C13CCC3)C1C(=O)c3c(O)ccc(O)c3C(=O)C12` (stereo not drawn), the GI50 is 0.577 µM in the assay on NCI-H23 lung; 2.49 µM in the assay on SK-MEL-28 melanoma; 7.96 µM in the assay on SF-268 CNS; 14.1 µM in the assay with SK-MEL-2 melanoma; 0.123 µM in the assay with MOLT-4 leukemia; 3.56 µM in the assay with UACC-62 melanoma. In addition, the GI50 with HCT-15 colon was 0.952 µM; with TK-10 renal, 0.587 µM; in the assay with KM12 colon, 2.91 µM. Moreover, the TGI with NCI-H23 lung was 2.15 µM; with SK-MEL-28 melanoma it was 6.35 µM; in the assay on SF-268 CNS, 26.3 µM; in the assay on SK-MEL-2 melanoma, > 100 µM; in the assay on UACC-62 melanoma, > 36.6 µM; with HCT-15 colon it was 3.4 µM. For the same molecule, the results for the TGI in the assay on TK-10 renal and with KM12 colon were 1.57 µM and 10.5 µM, respectively.
